Results from PMC10064330, “Reversible Dual-Covalent Molecular Locking of the 14-3-3/ERRγ Protein–Protein Interaction as a Molecular Glue Drug Discovery Approach” (Journal of the American Chemical Society, 2023).

Biological target: T1, 14-3-3γ/ERRγ complex (Homo sapiens, UniProt P61981+P62508)
T1 construct: made in house; host or cells: E. coli NiCo21 (DE3)
Test: Time-dependent intact MS in competitive mixture of nine client phosphopeptides
Assay type: biochemical
Description: 14-3-3 proteins interact with many phosphorylated proteins, with differing affinities and cellular concentrations.[44],[49],[50] On the cellular level, there is a large reservoir of 14-3-3, typically in vast excess to its binding partners. Notwithstanding, we were interested in developing a testable model for the effect of the molecular locking on a PPI network. To investigate the intricacies of selective stabilization of the 14-3-3/ERRγ interaction in a complex matrix, we performed time-dependent intact MS experiments in a competitive environment of excess of 14-3-3 client phosphopeptides. A mixture of 14-3-3 (1 eq.), molecular lock 5 (10 eq.), ΕRRγ (2 eq.), and eight additional client phosphopeptides (8 × 2 eq.) was incubated, and incremental samples were taken, quenched with sodium cyanoborohydride, and measured (Figure 5). […] The peptide panel contained four higher-affinity and three lower-affinity 14-3-3 binding clients, relative to ERRγ, (Figure 5b) and contained +1 Cys-containing peptides RND3 and PKR.
Figure S23a. QTOF-MS analysis of 14-3-3/peptide mix/5. […] Calculated mass 14-3-3γ apo:
31542.8 Da. Calculated mass covalently crosslinked 14-3-3γ/ERRγ/5 complex: 33019.5 Da. […]
Different Scanning Fluorimetry (DSF) assays were performed using 40 µL samples containing 5 µM 14-3-3γ, 50 µM ERRγ pS179 9-mer peptide, 200 µM compound (or 1% DMSO) and 5x ProteoOrange (Lumiprobe, 5000x stock in DMSO) in 10 mM Hepes, 150 mM NaCl, 50 µM TCEP (pH 8.0). […] Fluorescence intensity was determined using excitation 470/40 nm and emission 570/20 nm filters. Based on these melting curves, the negative derivative melting curve is obtained from which the melting temperature Tm was determined. ΔTm values represent the differences in melting temperature relative to the DMSO control. All described melting temperatures are based on three independent experiments from which the average and standard deviations were determined using excel. […]

T1 sequence (P61981 whole entry, other chains not shown): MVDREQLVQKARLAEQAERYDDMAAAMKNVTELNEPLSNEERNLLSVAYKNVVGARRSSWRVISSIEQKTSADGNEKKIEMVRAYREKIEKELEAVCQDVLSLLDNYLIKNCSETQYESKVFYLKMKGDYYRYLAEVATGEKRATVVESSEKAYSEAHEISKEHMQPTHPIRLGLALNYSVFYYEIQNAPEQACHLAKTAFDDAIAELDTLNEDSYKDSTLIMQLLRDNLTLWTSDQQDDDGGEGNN

SMILES: CN(C)CCSSCCN(C)C(=O)c1ccc(C=O)c(F)c1 [compound 5]
- maximum crosslinking efficiency (14-3-3γ/ERRγ/5 complex formation) (14-3-3γ 5 μM, ERRγ 10 μM, 5 50 μM, eight additional phosphopeptides 10 μM each): 35%
- increase in total number of 14-3-3/ERRγ complexes in solution (intact MS 35% vs modeled 2.4% ERRγ bound): 15 fold
- reduction in crosslinking capacity, peptide mix vs ERRγ in isolation (peptide competitors relative to ERRγ 8:1): ~2 fold
